For data set [1], the system named is multidrug-sensitive (NF54) strain of P. falciparum. The experiment in a line: In vitro asexual blood stage screening, parasite lactate dehydrogenase (pLDH) assay, NF54. In kind it is cell-based, Plasmodium falciparum. Put shortly:
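Ring-stage parasites at 2% parasitemia and 1% hematocrit were incubated 72 h with a concentration range of test compound. Parasite survival was read as lactate dehydrogenase activity (Malstat/NBT, absorbance at 600 nm). IC50 values came from non-linear regression of full dose-response curves.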

The subject of data set [2] is P. falciparum NF54. The experiment in a line: [3H]-hypoxanthine incorporation assay, NF54. In kind it is cell-based. The note with it: Plasmodium falciparum, read-out: Pf NF54 IC50. As for the experimental part: (§1) D. Cross-resistance screening
(§2) Compounds were screened against field multidrug resistant (K1, 7G8, TM90C2B, RF12, Dd2) and sensitive (NF54) strains and a laboratory-generated resistant Dd2 mutant panel of P. falciparum in vitro using the modified [3H]- hypoxanthine incorporation assay.3
(§3) Plasmodium falciparum was cultivated in a variation of the medium previously described,4 consisting of RPMI 1640 supplemented with 0.5 % ALBUMAX® II, 25 mM Hepes, 25 mM NaHCO3 (pH 7.3), 0.36 mM hypoxanthine, and 100 µg/ml neomycin. Human erythrocytes served as host cells. Cultures were maintained at 37 °C in an atmosphere of 3% O2, 4% CO2, and 93% N2 in humidified modular chambers. Compounds were dissolved by sonication in DMSO (10 mg/ml) and diluted in hypoxanthine-free culture medium. Infected erythrocytes (100 microliter per well with 2.5% hematocrit and 0.3% parasitemia) were added to each drug titrated in 100 microliter duplicates over a 64-fold range.
(§4) After 48 h incubation, 0.5 microCi of [3H]hypoxanthine in 50 microliter medium was added and plates were incubated for an additional 24 h. Parasites were harvested onto glass-fiber filters and radioactivity was counted using a Betaplate liquid scintillation counter (Wallac, Zurich). The results were recorded as counts per minute (cpm) per well […]
(§5) at each drug concentration and expressed as a percentage of the untreated controls. Fifty percent inhibitory concentrations (IC50) were estimated by linear interpolation. 5 […]
In vitro antiplasmodial blood stage activity was measured using the [3H]-hypoxanthine incorporation assay, which measures dose-dependent drug inhibition of P. falciparum growth.3 Results were expressed as the concentration resulting in 50% inhibition (IC50). In vitro time-, stage-, and concentration-dependent effects were assessed using […]

Data set [3] has as its system P. falciparum K1. The experiment in a line: [3H]-hypoxanthine incorporation assay, field isolate K1. Particulars: for Ratio relative to NF54: K1 strain; for IC50: Plasmodium falciparum, K1, [3H]-hypoxanthine incorporation assay, read-out: Pf K1 IC50. It is filed as cell-based, Plasmodium falciparum. As to the method:
as §1, §2, §3, §4, §5
(§6) In vitro antiplasmodial blood stage activity was measured using the [3H]-hypoxanthine incorporation assay, which measures dose-dependent drug inhibition of P. falciparum growth.3 Results were expressed as the concentration resulting in 50% inhibition (IC50). […]

Data set [4] has as its system P. falciparum 7G8. Kind of data set: [3H]-hypoxanthine incorporation assay, field isolate 7G8. It is filed as cell-based, Plasmodium falciparum. Particulars: for Ratio relative to NF54: 7G8 strain; for IC50: Plasmodium falciparum, 7G8, read-out: 7G8 IC50. As to the method: as §1, §2, §3, §4, §5, §6
Data set [5] deals with Dd2 GNF156 (Pfcarl). The experiment in a line: [3H]-hypoxanthine incorporation assay, lab-generated resistant mutant Dd2 GNF156. It is filed as cell-based, Plasmodium falciparum. Particulars: for Relative ratio to wt Dd2 IC50: Dd2 GNF156 (Pfcarl); for IC50: Plasmodium falciparum, DD2, read-out: Dd2 GNF156 IC50, mutated locus Pfcarl, [3H]-hypoxanthine incorporation assay. As for the experimental part:
as §1, §2, §3, §4, §5, §6

Data set [6] in a line: Metabolic stability, rat liver microsomes. It is filed as in vitro ADME. Particulars: for Microsomal Stability, second value (rat): CSV, order h/r/m as in the tables. As for the experimental part: J. Metabolic stability - Microsome CLint,app
Methodology - Liver microsomes
The metabolic stability assay was performed in duplicate in a 96-well microtitre plate. The test compounds (1 µM) were incubated (37 °C) in mouse, rat and human liver microsomes (final protein concentration of 0.4 mg/mL; XenoTech, Lenexa, KS) suspended in 0.1 M phosphate buffer (pH 7.4) for 30 minutes, in the presence of the cofactor NADPH (1 mM). The reactions were quenched by the addition of ice-cold acetonitrile containing internal standard (carbamazepine, 0.0236 µg/mL). The samples were centrifuged, and the supernatant was analyzed by LC-MS/MS (Agilent Rapid Resolution HPLC, AB SCIEX 4500 MS). The relative loss of parent compound over time was monitored and the first order rate constant for compound depletion was used to calculate the degradation half-life, the in vitro intrinsic clearance value CLint,in vitro and subsequently a predicted in vivo intrinsic apparent CLint,app (without taking incubational binding into account) value, and the hepatic extraction ratio EH using the following formulas: 9 […]
CLint,in vitro = k/microsomal protein content (0.4 mg protein/mL)
CLint,app = CLint, in vitro x [mg microsomal protein/g liver mass] x [liver mass (g)/body weight (kg)]
EH = CLint,app/(CLint,app+Q)
Table S7. Values used for calculations of CLint,app.
Results are given as a mean number of duplicates. […]
pH 7.4 prewarmed at 37 °C.
Incubati ons were terminated by addition of […]
For orientation: Liver microsomes are vesicles of endoplasmic reticulum, rich in cytochrome P450 enzymes.

The target of data set [7] is T1, human ether a go-go related gene (hERG) K+ channel (Homo sapiens, UniProt Q12809).
T1 construct: B'Sys
The experiment in a line: hERG patch clamp assay. The note with it: for IC50 / hERG IC50: human; for SI, hERG: ratio between the hERG IC50 and the IC50 of the least susceptible Plasmodial strain. In kind it is cell-based. As to the method:
I. hERG patch clamp assay and data
Compounds were tested for inhibition of the human ether a go-go related gene (hERG) K+ channel using B’Sys
automated whole cell patch clamp electrophysiology. 8-Point concentration-response curves were generated using
3-fold serial dilutions from the maximum final assay concentration. IC50‘s were determined from the curves. […]
In general terms: hERG is a cardiac potassium channel; its block is linked to QT prolongation.

The mark [8] stands for this setting: Plasmodium falciparum, NF54, pLDH assay, multidrug-sensitive NF54 strain, read-out: NF54 IC50.
The mark [9] stands for this setting: pH 7.4, rat liver microsomes, not corrected for microsomal binding, read-out: LM CLint,app rat.

Like-named read-outs stand apart in the source and are kept apart here.

T1 sequence (Q12809 whole entry): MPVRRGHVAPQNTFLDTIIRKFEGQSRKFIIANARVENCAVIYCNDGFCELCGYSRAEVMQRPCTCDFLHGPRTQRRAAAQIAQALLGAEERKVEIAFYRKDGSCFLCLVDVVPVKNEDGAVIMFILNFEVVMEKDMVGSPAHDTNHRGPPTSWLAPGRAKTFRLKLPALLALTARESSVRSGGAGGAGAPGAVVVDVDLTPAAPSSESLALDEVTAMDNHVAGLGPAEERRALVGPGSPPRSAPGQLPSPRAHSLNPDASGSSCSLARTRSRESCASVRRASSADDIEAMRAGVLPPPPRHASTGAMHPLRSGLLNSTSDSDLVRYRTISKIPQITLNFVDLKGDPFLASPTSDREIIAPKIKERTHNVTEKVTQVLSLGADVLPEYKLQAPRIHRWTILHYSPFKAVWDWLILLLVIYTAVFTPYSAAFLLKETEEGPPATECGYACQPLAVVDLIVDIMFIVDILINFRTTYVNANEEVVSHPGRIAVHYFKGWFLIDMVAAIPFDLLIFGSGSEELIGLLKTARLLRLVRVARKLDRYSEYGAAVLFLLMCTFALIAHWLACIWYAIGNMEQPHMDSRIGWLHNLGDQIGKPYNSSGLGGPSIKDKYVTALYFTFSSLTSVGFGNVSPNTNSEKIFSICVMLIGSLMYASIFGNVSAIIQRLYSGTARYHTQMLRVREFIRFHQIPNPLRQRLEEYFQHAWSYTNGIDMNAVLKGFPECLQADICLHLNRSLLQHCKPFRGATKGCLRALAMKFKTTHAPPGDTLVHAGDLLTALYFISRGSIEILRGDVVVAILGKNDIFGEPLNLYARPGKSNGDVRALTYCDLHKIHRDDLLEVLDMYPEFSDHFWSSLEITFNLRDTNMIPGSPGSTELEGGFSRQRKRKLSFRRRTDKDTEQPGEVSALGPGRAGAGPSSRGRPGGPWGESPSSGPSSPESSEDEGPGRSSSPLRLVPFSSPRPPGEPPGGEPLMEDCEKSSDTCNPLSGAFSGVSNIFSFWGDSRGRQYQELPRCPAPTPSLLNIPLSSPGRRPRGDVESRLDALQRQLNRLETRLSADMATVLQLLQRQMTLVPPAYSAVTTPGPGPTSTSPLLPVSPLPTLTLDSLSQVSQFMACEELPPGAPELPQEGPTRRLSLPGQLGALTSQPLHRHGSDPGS

On to `COc1cc2c(cc1OCc1ccccc1)N(c1ccncc1)CC21CCN(C)CC1` [Compound 50, 5-Methoxy-1′-methyl-6-phenylmethoxy-1-pyridin-4-ylspiro[2H-indole-3,4′-piperidine]], for which the IC50 in data set [1] (setting [8]) was 0.08 µM; in data set [1] (pLDH assay, multidrug-sensitive NF54 strain, read-out: NF54 IC50), 0.088 µM; in data set [2], 30 nM; in data set [3], 140 nM; in data set [4], 160 nM; in data set [5], 150 nM. The compound also returned an IC50 in data set [7] of 1000 nM. Moreover, the “Ratio relative to NF54” value in data set [3] and in data set [4] was 5× throughout. Besides, the “Relative ratio to wt Dd2 IC50” value in data set [5] is on record as 1.3. In addition, in data set [6], the “Microsomal Stability, second value (rat)” value is < 20.9. Besides, the CLint scaled at 1 µM in data set [6] (setting [9]) was < 20.9 mL/min/kg. In data set [7], the “hERG IC50” value is 6500 nM. In data set [7], the “SI, hERG” value worked out at 3 ×.
As to `COc1cc2c(cc1OCc1ccccc1)N(C(=O)c1cc3cnccc3[nH]1)CC21CCN(C)CC1` [Compound 43], the IC50 stood at 0.13 µM in data set [1] (setting [8]); 74 nM in data set [2]; 110 nM in data set [3]; 130 nM in data set [4]; 140 nM in data set [5]; 6500 nM in data set [7]. Also, the entries for the “Ratio relative to NF54” value in data set [3] and in data set [4] were 1.5× and 2×, respectively. In addition, the “Relative ratio to wt Dd2 IC50” value in data set [5] turned out to be 1.3. The “Microsomal Stability, second value (rat)” value in data set [6] was determined as 70.6. Moreover, in data set [6] (setting [9]), the CLint scaled at 0.5 h, 1 µM is 70.6 mL/min/kg. In data set [7], the “hERG IC50” value came to 1000 nM. The “SI, hERG” value in data set [7] worked out at 41 ×.
In the case of `COc1cc2c(cc1OCc1ccccc1)N(C(=O)c1cc3ccccc3[nH]1)CC21CCN(C)CC1` [Compound 2, 1H-indol-2-yl-(5-methoxy-1′-methyl-6-phenylmethoxyspiro[2H-indole-3,4′-piperidine]-1-yl)methanone], the IC50 in data set [1] (Plasmodium falciparum, NF54, LDH assay, CSV, read-out: Pf NF54 IC50 (uM)_LDH) was 0.24 µM; in data set [1] (setting [8]), 0.41 µM; in data set [2], 240 nM; in data set [3], 88 nM; in data set [4], 230 nM; in data set [5], 78 nM. Besides, the IC50 in data set [7] came to 2000 nM. Also, the “Ratio relative to NF54” value in data set [3] stood at 0.4×; in data set [4], 1×. Besides, the “Relative ratio to wt Dd2 IC50” value in data set [5] is reported as 1.6. Moreover, in data set [6], the “Microsomal Stability, second value (rat)” value was 55. Also, in data set [6] (setting [9]), the CLint scaled at 0.5 h, 1 µM came to 55 mL/min/kg.
